Where only a bound is given, the exact number is not on record here.

As a reminder, the IC50 is the midpoint of a concentration-inhibition curve.

The subject of experiment [1] is K-562. Put plainly: Cell proliferation modulatory activity, K-562. Type of experiment: cell-based. To be noted: Homo sapiens, K562; Table 45; read-out: K-562 IC50.
For experiment [2], the target named is recombinant human PIM1 (Homo sapiens (Human), UniProt P11309). Description: PIM-1 kinase activity in cell-free in vitro assay. In kind it is biochemical. To be noted: Table 45.
Chain of recombinant human PIM1 (P11309 whole entry): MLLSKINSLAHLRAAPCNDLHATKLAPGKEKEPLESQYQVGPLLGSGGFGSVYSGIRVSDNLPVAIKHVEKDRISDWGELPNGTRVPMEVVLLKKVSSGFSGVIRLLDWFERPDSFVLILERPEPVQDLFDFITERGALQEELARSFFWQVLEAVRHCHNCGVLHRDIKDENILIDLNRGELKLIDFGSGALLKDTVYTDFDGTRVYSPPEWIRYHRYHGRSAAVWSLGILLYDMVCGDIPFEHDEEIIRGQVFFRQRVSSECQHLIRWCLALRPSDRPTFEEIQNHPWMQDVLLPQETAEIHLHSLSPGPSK
The test system of experiment [3] is MiaPaca human pancreatic carcinoma cells. Put plainly: Cell-proliferation assay using Alamar Blue dye. To be noted: MIA PaCa-2, Table 45. In kind it is cell-based. As to the method: A representative cell-proliferation assay protocol using Alamar Blue dye (stored at 4° C., use 20 ul per well) is described hereafter.
• a. Split and trypsinize cells. • b. Count cells using hemocytometer. • c. Plate 4,000-5,000 cells per well in 100 μl of medium and seed into a 96-well plate according to the following plate layout. Add cell culture medium only to wells B10 to B12. Wells B1 to B9 have cells but no compound added.
• d. Add 100 μl of 2× drug dilution to each well in a concentration shown in the plate layout above. At the same time, add 100 μl of media into the control wells (wells B10 to B12). Total volume is 200 μl/well. • e. Incubate four (4) days at 37° C., 5% CO2 in a humidified incubator. • f. Add 20 μl Alamar Blue reagent to each well. • g. Incubate for four (4) hours at 37° C., 5% CO2 in a humidified incubator. • h. Record fluorescence at an excitation wavelength of 544 nm and emission wavelength of 590 nm using a microplate reader.
In the assays, cells are cultured with a test compound for approximately four days, the dye then is added to the cells and fluorescence of […] dye is detected after approximately four hours. Different types of cells can be utilized in the assays (e.g., HCT-116 human colorectal carcinoma cells, PC-3 human prostatic cancer cells and MiaPaca human pancreatic carcinoma cells). Anti-proliferative effects of representative compounds are provided hereafter

Experiment [4] relates to phosphoBAD ser 112. Put plainly: phosphoBAD ser 112 IC50. In kind it is cell-based. To be noted: read-out: phosphoBAD ser 112 IC50; Table 45.
The target in experiment [5] is PIM2 (Homo sapiens (Human), UniProt Q9P1W9). Put plainly: PIM2 IC50. In kind it is biochemical. To be noted: Table 45.
Chain of PIM2 (Q9P1W9 whole entry): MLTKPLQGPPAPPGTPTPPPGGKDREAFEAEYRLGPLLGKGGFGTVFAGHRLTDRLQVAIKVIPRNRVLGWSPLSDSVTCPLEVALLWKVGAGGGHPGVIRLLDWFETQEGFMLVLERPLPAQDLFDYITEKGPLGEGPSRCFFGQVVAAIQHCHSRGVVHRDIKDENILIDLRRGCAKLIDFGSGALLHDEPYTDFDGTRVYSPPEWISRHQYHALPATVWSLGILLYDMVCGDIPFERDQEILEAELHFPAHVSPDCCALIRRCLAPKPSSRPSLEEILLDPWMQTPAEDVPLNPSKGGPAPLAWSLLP
The subject of experiment [6] is MV-4-11. Put plainly: Cell proliferation modulatory activity, MV-4-11. In kind it is cell-based. To be noted: Homo sapiens, MV4-11; Table 45; read-out: MV-4-11 IC50.
Experiment [7] has as its system MDAMB231. Description: MDAMB231 IC50. Type of experiment: cell-based. To be noted: Homo sapiens, MDA-MB-231; Table 45.

Regarding `Fc1ccc(Nc2nc3c(-c4nnc[nH]4)cccc3c3cnccc23)cc1`, the IC50 in experiment [1] is over 10000 nM; in experiment [2], under 100 nM; in experiment [3], under 5000 nM; in experiment [4], under 500 nM; in experiment [5], under 500 nM; in experiment [6] it was under 500 nM. For the same compound, the 50% inhibitory concentration (IC50) in experiment [7] is under 5000 nM.

For `C#Cc1cccc(Nc2nc3c(-c4nnc[nH]4)cccc3c3cnccc23)c1`, the IC50 in experiment [1] is under 5000 nM; in experiment [2], under 100 nM; in experiment [3], under 500 nM; in experiment [4], under 100 nM; in experiment [5], under 100 nM; in experiment [6], under 100 nM. In experiment [7], the IC50 was under 500 nM.

Consider `Cc1cc(F)ccc1Nc1nc2c(-c3nnc[nH]3)cccc2c2cnccc12`, for which the IC50 in experiment [1] is under 500 nM; in experiment [2], under 100 nM; in experiment [3], under 5000 nM; in experiment [4], under 100 nM; in experiment [5], under 100 nM; in experiment [6] it was under 100 nM. The compound further returned an IC50 in experiment [7] of over 10000 nM.

As to `COCCOc1ccc(Nc2nc3c(-c4nnc[nH]4)cccc3c3cnccc23)cc1`, the IC50 in experiment [1] is over 10000 nM; in experiment [2], under 500 nM; in experiment [3], under 1000 nM; in experiment [4] it was under 500 nM; in experiment [5], under 1000 nM; in experiment [6], under 100 nM. Besides, in experiment [7], the IC50 is under 10000 nM.

On to `COCCNc1nc2c(-c3nc[nH]n3)cccc2c2cnccc12`, for which the IC50 in experiment [1] is under 10000 nM; in experiment [2], under 100 nM; in experiment [3], under 5000 nM; in experiment [4] it was under 100 nM; in experiment [5], under 500 nM; in experiment [6] it was under 100 nM. The IC50 in experiment [7] is under 10000 nM.

Take `NC(=O)c1cccc2c1nc(Nc1cccc(Cl)c1)c1ccncc12` [drawing 2246]: the IC50 in experiment [1] is under 500 nM; in experiment [2], under 100 nM; in experiment [3] it was under 1000 nM; in experiment [4], under 5000 nM; in experiment [6], under 100 nM; in experiment [7] it was under 10000 nM.

For the compound `c1cc(-c2nc[nH]n2)c2nc(NC3CC3)c3ccncc3c2c1`, the IC50 in experiment [1] was under 100 nM; in experiment [2], under 100 nM; in experiment [3] it was under 1000 nM; in experiment [4] it was under 100 nM; in experiment [5], under 100 nM; in experiment [6], under 100 nM. The compound further came in with an IC50 in experiment [7] of under 1000 nM.

Turning to `Fc1cccc(F)c1Nc1nc2c(-c3nnc[nH]3)cccc2c2cnccc12`, the IC50 in experiment [1] was under 500 nM; in experiment [2], under 100 nM; in experiment [3], under 1000 nM; in experiment [4] it was under 100 nM; in experiment [5], under 100 nM; in experiment [6], under 100 nM. In addition, in experiment [7], the half-inhibitory concentration (IC50) was under 5000 nM.

`Fc1cc(Cl)cc(Nc2nc3c(-c4nnc[nH]4)cccc3c3cnccc23)c1`: the IC50 in experiment [1] was under 5000 nM; in experiment [2] it was under 100 nM; in experiment [3], under 500 nM; in experiment [4], under 500 nM; in experiment [5], over 1100 nM; in experiment [6], under 100 nM. In experiment [7], the IC50 is under 1000 nM.

With `NC(=O)c1cccc2c1nc(Nc1cccc(F)c1)c1ccncc12`, the IC50 in experiment [1] is under 1000 nM; in experiment [2] it was under 500 nM; in experiment [3], under 1000 nM; in experiment [4] it was under 100 nM; in experiment [6] it was under 120 nM; in experiment [7] it was under 1000 nM.

For `COc1cc(Nc2nc3c(-c4nc[nH]n4)cccc3c3cnccc23)ccc1F`, the IC50 in experiment [1] is under 5000 nM; in experiment [2] it was under 100 nM; in experiment [3] it was under 10000 nM; in experiment [4], under 5000 nM; in experiment [5] it was under 500 nM; in experiment [6], under 500 nM. For the same compound, the IC50 in experiment [7] was over 10000 nM.

As for `c1ccc(Nc2nc3c(-c4nnc[nH]4)cccc3c3cnccc23)cc1`, the IC50 in experiment [1] is under 5000 nM; in experiment [2] it was under 100 nM; in experiment [3], under 1000 nM; in experiment [4], under 100 nM; in experiment [5], under 1000 nM; in experiment [6], under 100 nM. Also, the IC50 in experiment [7] was over 10000 nM.

`Clc1cccc(Nc2nc3c(-c4nnc[nH]4)cccc3c3cnccc23)c1`: the IC50 in experiment [1] is under 1000 nM; in experiment [2] it was under 100 nM; in experiment [3], under 1000 nM; in experiment [4] it was under 1000 nM; in experiment [5] it was under 100 nM; in experiment [6] it was under 500 nM. In addition, the IC50 in experiment [7] is under 5000 nM.

`Fc1ccc(Nc2nc3c(-c4nnc[nH]4)cccc3c3cnccc23)cc1Cl`: the half-inhibitory concentration (IC50) is under 5000 nM in experiment [1]; under 100 nM in experiment [2]; under 5000 nM in experiment [3]; under 1000 nM in experiment [4]; under 500 nM in experiment [5]; under 100 nM in experiment [6]. The IC50 in experiment [7] is under 5000 nM.

On to `Fc1cc(F)cc(Nc2nc3c(-c4nnc[nH]4)cccc3c3cnccc23)c1`, for which the IC50 in experiment [1] was under 5000 nM; in experiment [2], under 100 nM; in experiment [3], under 1000 nM; in experiment [4], under 1000 nM; in experiment [5], under 500 nM; in experiment [6] it was under 500 nM. For the same compound, the IC50 in experiment [7] is over 10000 nM.

With `Fc1ccc(Nc2nc3c(-c4nc[nH]n4)cccc3c3cnccc23)c(F)c1`, the IC50 in experiment [1] is under 5000 nM; in experiment [2], under 100 nM; in experiment [3] it was under 5000 nM; in experiment [4], under 100 nM; in experiment [5] it was under 100 nM; in experiment [6], under 100 nM. In addition, in experiment [7], the IC50 is under 5000 nM.

On to `COc1cccc(Nc2nc3c(-c4nnc[nH]4)cccc3c3cnccc23)c1`, for which the IC50 in experiment [1] was under 5000 nM; in experiment [2], under 100 nM; in experiment [3], under 1000 nM; in experiment [4], under 100 nM; in experiment [5], under 1000 nM; in experiment [6], under 500 nM. The compound also came in with a concentration for half-maximal inhibition (IC50) in experiment [7] of under 1000 nM.

Consider `COc1cccc(CNc2nc3c(-c4nc[nH]n4)cccc3c3cnccc23)c1`, for which the IC50 in experiment [1] is under 500 nM; in experiment [2], under 100 nM; in experiment [3] it was over 10000 nM; in experiment [4] it was under 5000 nM; in experiment [5] it was under 500 nM; in experiment [6], under 500 nM. In experiment [7], this compound registered an IC50 of over 10000 nM.

As to `FC(F)(F)Oc1cccc(Nc2nc3c(-c4nnc[nH]4)cccc3c3cnccc23)c1`, the IC50 is under 500 nM in experiment [1]; under 500 nM in experiment [2]; under 5000 nM in experiment [3]; under 5000 nM in experiment [4]; under 1000 nM in experiment [5]; under 500 nM in experiment [6]. For the same compound, the IC50 in experiment [7] was over 10000 nM.

For the compound `c1ccc(CCNc2nc3c(-c4nc[nH]n4)cccc3c3cnccc23)cc1`, the IC50 in experiment [1] is over 10000 nM; in experiment [2], under 100 nM; in experiment [3], over 10000 nM; in experiment [4] it was under 1000 nM; in experiment [5], under 500 nM; in experiment [6], under 500 nM. The compound also had a half-maximal inhibitory concentration (IC50) in experiment [7] of under 10000 nM.

On to `OCCNc1nc2c(-c3nnc[nH]3)cccc2c2cnccc12`, for which the IC50 in experiment [1] is over 10000 nM; in experiment [2], under 500 nM; in experiment [3], under 500 nM; in experiment [4] it was under 500 nM; in experiment [5], under 1000 nM; in experiment [6] it was under 100 nM. In experiment [7], this compound registered an IC50 of over 10000 nM.

In the case of `FC(F)(F)Oc1ccccc1Nc1nc2c(-c3nnc[nH]3)cccc2c2cnccc12`, the concentration for half-maximal inhibition (IC50) in experiment [1] was over 10000 nM; in experiment [2], under 100 nM; in experiment [3], over 10000 nM; in experiment [4] it was under 100 nM; in experiment [5], under 100 nM; in experiment [6] it was under 500 nM. For the same compound, the concentration for half-maximal inhibition (IC50) in experiment [7] is over 10000 nM.

In the case of `CCOc1ccc(Nc2nc3c(-c4nnc[nH]4)cccc3c3cnccc23)cc1`, the IC50 in experiment [1] was under 5000 nM; in experiment [2], under 100 nM; in experiment [3] it was under 1000 nM; in experiment [4], under 100 nM; in experiment [5] it was under 500 nM; in experiment [6], under 100 nM. This compound came in with an IC50 in experiment [7] of over 10000 nM.

Turning to `Fc1ccc(Nc2nc3c(-c4nc[nH]n4)cccc3c3cnccc23)cc1F`, the IC50 in experiment [1] was over 10000 nM; in experiment [2] it was under 100 nM; in experiment [3], under 5000 nM; in experiment [4] it was under 5000 nM; in experiment [5], under 500 nM; in experiment [6], under 100 nM. In experiment [7], this compound displayed an IC50 of under 1000 nM.

Consider `COCCOc1cccc(Nc2nc3c(-c4nnc[nH]4)cccc3c3cnccc23)c1`, for which the IC50 in experiment [1] is over 10000 nM; in experiment [2], under 500 nM; in experiment [3] it was over 10000 nM; in experiment [4], under 100 nM; in experiment [6], under 100 nM; in experiment [7] it was over 10000 nM.

In the case of `CN(c1ccccc1Cl)c1nc2c(-c3nnc[nH]3)cccc2c2cnccc12`, the IC50 is under 5000 nM in experiment [1]; under 100 nM in experiment [2]; under 5000 nM in experiment [4]; under 1000 nM in experiment [5]; under 100 nM in experiment [6]; over 10000 nM in experiment [7].
